# From ChEMBL document CHEMBL3507680, “University of Dundee, Gates Library screen for HepG2 cell viability”
# Experiment: Human HepG2 cell viability assay in 384 well format
# Assay type: toxicity, cell-based
# Parameters: dose 125 nL, time 70.5 hour; concentration not given beside the values
# Details: HepG2 cells, read-out: Inhibition
row,Structure (SMILES),cytotoxicity at 70.5 h
1,COc1ccc(-c2ccc(C(=O)NS(C)(=O)=O)c(F)c2)cc1,-5.82%
2,Fc1cccc(-c2nc(CN3CCCCC3Cn3cncn3)co2)c1 (configuration not stated),-15.4%
3,CC1CCN(C(CNC(=O)Cn2cccn2)c2cccs2)CC1 (configuration not stated),-7.96%
4,CCOCCOCc1cccc(CNc2cncc(-n3cccn3)n2)c1,-2.12%
5,Cc1ncnc2c1CCN(C(=O)c1ccoc1)CC2,-6.33%
6,Cc1csc(NC(=O)CN2CCC(c3ccnn3CCO)CC2)n1,33.6%
7,CCN(CCO)C[C@@H]1CN(c2nc(C)cc(C)n2)C[C@@H]1CO,-2.32%
8,CN(C)c1ncccc1CN1CCOC(C(=O)Nc2ccccc2)C1 (configuration not stated),-7.2%
9,CC(c1nc(C(C)(C)C)no1)N1CCN(Cc2ccco2)CC1 (configuration not stated),-15%
10,CCc1csc(C2CCCN(C(=O)C3=NN(CC)C(=O)CC3)C2)n1 (configuration not stated),3.39%
11,Cc1nc(CN2CCOCC3(CCN(c4cnccn4)CC3)C2)cs1,-82.2%
12,CSCC(C)(O)CNS(=O)(=O)c1ccc(Br)cc1 (configuration not stated),23.8%
13,CN(C)C(C(=O)N1CCN(CCn2cccc2)CC1)c1cccc(F)c1 (configuration not stated),2.13%
14,Cc1ccc(-c2cc(C(F)(F)F)nc(N3CCOCC3)n2)s1,-11.3%
15,CC(C#N)CN(C)Cc1c(Cl)ccc2cccnc12 (configuration not stated),23%
16,CN(C)C(=O)N1CCC(C(=O)NCCNc2ncccc2C#N)CC1,-4.63%
17,Cc1cc(C(=O)N2CCCC(c3cc(C(F)(F)F)[nH]n3)C2)on1 (configuration not stated),-4.58%
18,CCc1ccc(C(=O)Nc2ccc3c(c2)N(C)CCN(C)C3)o1,-8.89%
19,COc1ccc(Cn2cc(C(C)O)nn2)cc1 (configuration not stated),20.2%
20,O=S(=O)(NCC1OCCc2cn(Cc3ccccn3)nc21)C1CC1 (configuration not stated),-0.93%
21,C=C(C)COc1cccc(CNCCc2c[nH]cn2)c1,-6.28%

row,Structure (SMILES),cytotoxicity at 70.5 h
1,Cn1cccc1C(=O)N1CCc2ncnc(N3CCOCC3)c2CC1,-9.14%
2,CC1=N[C@@]2(CC[C@@H]3CN(C(=O)NCc4ccccc4C)C[C@@H]32)C(=O)N1,7.73%
3,O=C(Nc1cccnc1)[C@H]1CN(Cc2nccs2)C[C@H]2OCC[C@@H]12,35.5%
4,CCN1CC(CN(C)c2cc(C)nc(N)n2)Oc2ccccc21 (configuration not stated),17.6%
5,CCOCC(=O)N1CC(=O)Nc2cc(Br)ccc21,-6.53%
6,Cc1nn(C)c(C)c1NC(=O)CNc1cc(C(F)(F)F)ccc1F,25%
7,CC(Nc1cccc(CN2CCOC2=O)c1)C(=O)Nc1cccc(F)c1 (configuration not stated),-0.899%
8,CC(O)CN1CCC(CNCc2cn(-c3ccccc3)nn2)CC1 (configuration not stated),-9.21%
9,CCN(CC)CCCNCc1cc2cccc(C)c2[nH]c1=O,-4.69%
10,CCS(=O)(=O)N1CCCc2ccc(NC(=O)Cc3ccc(F)cc3)cc21,36.7%
11,Cn1cnnc1C1CCCN(C(=O)c2cnc3ccccc3n2)C1 (configuration not stated),-1.48%
12,CCN(CC)S(=O)(=O)c1cc(Br)ccc1OC,-7.07%
13,Cc1nc(N2CCC(CC(=O)N3CCCC3)CC2)c2cnn(C)c2n1,-3.28%
14,CC(C)c1nnc2n1CCN(c1nn3cc(C(C)(C)C)nc3s1)C2,-8.04%
15,CCCn1c(C)c(CC(=O)NC(C)(C)CO)c2c1CC(C)(C)CC2=O,0.294%
16,Clc1ccc(-c2nc(CN3CCCC3Cn3cncn3)co2)cc1 (configuration not stated),-1.1%
17,CN(C)S(=O)(=O)N1C[C@@H]2CN(Cc3ccoc3)CCO[C@@H]2C1,-4.48%
18,Cc1nc(CN2CCCN(c3nccs3)CC2)no1,10.6%
19,COCC(=O)N1CCCCC1c1ccnc(Nc2ncc(C)s2)n1 (configuration not stated),-0.578%
20,N#CCCN(Cc1ccco1)C(=O)CCCNC(=O)c1ccccc1,-15.9%
21,FC(F)(F)c1ccc2nc([C@H]3CCN(C4CCC4)C3)[nH]c2c1,-7.81%

row,Structure (SMILES),cytotoxicity at 70.5 h
1,COCCNC(=O)c1sccc1N(C)S(=O)(=O)c1ccc(Cl)cc1,-22.2%
2,Cc1cnc(CN2CCCC2c2noc(C)n2)cn1 (configuration not stated),5.04%
3,CCN(Cc1ccccn1)C1CCN(c2ccccc2)C1=O (configuration not stated),-5.06%
4,CNC(=O)c1cc(C)nc(C2(C)CCCN2c2cc(C)ncn2)n1 (configuration not stated),-6.05%
5,COCc1nc(CNc2cc(C)nc(N3CCCCC3)n2)no1,-7.86%
6,COCCC(=O)N1C[C@@H](c2cccc(OC)c2)[C@@]2(CCCCC(=O)N2)C1,-14.8%
7,COc1ccc(C(C)Nc2ncc(C(N)=O)cc2Cl)cc1F (configuration not stated),-10.7%
8,COCCC(=O)N1CCCN(Cc2nccn2C(C)C)CC1,-1.06%
9,Cc1cc(O)n(-c2ccc3nnc(C)n3n2)n1,-19.5%
10,COC(=O)COn1c(SC)nc2ccccc2c1=O,-9.2%
11,COc1ccnc(N2CCN(Cc3ncc(C(C)(C)C)o3)CC2)n1,6.11%
12,CC(=O)N1CCCN(C(=O)NCCCN(C)S(C)(=O)=O)CC1,-8.8%
13,COc1cccc(CN(C)C(C)C(=O)Nc2nc(C)c(C)s2)c1 (configuration not stated),-11.4%
14,CN1C[C@H](O)[C@]2(CCN(C(=O)COc3ccccc3)C2)S1(=O)=O,-5.4%
15,Cn1cc(N2CC3(CCN(Cc4ccccc4)CC3)OCC2=O)cn1,52.7%
16,CC(C)c1nc(CC(=O)Nc2cnccc2O)cs1,-3.73%
17,CC(=O)N1CC(=O)N(c2ccsc2)CC12CCN(Cc1ccoc1)C2 (configuration not stated),-11.1%
18,Cc1nnc(CSc2ccccn2)o1,-13.6%
19,Cc1ccnn1CCC(=O)N1CCCC[C@]2(C)NC(=O)CCC[C@H]12,-7.45%
20,CC(=O)N(C)c1nc(Cn2nnnc2C2CCCC2)cs1,0.35%
21,O=C(c1cc(C2CC2)on1)N1CCC(Oc2ncccc2Cl)CC1,-6.96%

row,Structure (SMILES),cytotoxicity at 70.5 h
1,CNc1ncc(CN(C)C2CCN(C(C)C)CC2)cn1,-3.89%
2,CCN(C(=O)COC)C(c1cccnc1)c1cc(C)cc(C)c1 (configuration not stated),13.8%
3,Cc1cc(C)n(C2CCCN(C(=O)CN(C)c3cnccn3)C2)n1 (configuration not stated),-0.822%
4,COc1cc2nc(C)sc2cc1NC(=O)C(C)NC(N)=O (configuration not stated),1.54%
5,O=C(Nc1ccc2c(c1)OCO2)Nc1cnn(C2CCOCC2)c1,-0.609%
6,CCN(C)S(=O)(=O)NCC1(c2cccc(Br)c2)CC1,-1.33%
7,Fc1ccc(CN2CCC3(CC2)CN(c2ccccn2)CCO3)cc1,2.69%
8,CCC1CN(Cc2c(O)ccc3oc4c(c23)CCCC4)CCO1 (configuration not stated),8.92%
9,COc1ccc(OCCC(=O)N2CCCC2Cn2cccn2)cc1 (configuration not stated),0.4%
10,CNC(=O)c1cccc(C2CNCCN2C(=O)c2ccn(C)n2)c1 (configuration not stated),0.974%
11,CN1CCC(Oc2ccc(-n3ccnc3-c3ccncc3)cc2)CC1,-13.2%
12,CC(C)NC(=O)N1CCN(C(=O)c2ccco2)CC2(CC(=O)N(C)C2)C1 (configuration not stated),-23.2%
13,Cc1cc(F)ccc1C(=O)N1C[C@@H]2COC[C@]2(CN(C)C)C1,-14.9%
14,CN(C)CCCNC(=O)c1cc(Cl)ccc1Cl,-14.5%
15,O=C(CN1CCc2cncnc2C1)NC(C1CC1)C1CC1,-12.3%
16,O=C(NCc1ccccc1-n1cccn1)N1CCC(N2CCCC2)C1 (configuration not stated),-6.47%
17,COc1cccc(CC(=O)N2CCC(NCc3c[nH]nc3C)CC2)c1,-4.19%
18,Cc1ccc(N2CCCC(NCc3cnc(C)s3)C2)nn1 (configuration not stated),-1.22%
19,CN1CCC2(CCCN(S(=O)(=O)c3ccc(-c4cnco4)s3)C2)C1 (configuration not stated),-6.76%
